Assay results published in the NIST ThermoML archive (doi:10.1021/je900428g).
Several values for one entry are separate records, joined by “and”; a condition that tells them apart may be missing. Identical values can stand only once. ± gives the expanded uncertainty stated by the source.

Conditions: Fluid (supercritical or subcritical phases), Spherical resonator

[Ar] [argon]
Conditions | speed of sound
250 K, 53.7 kPa | 294.48 ± 0.5 m/s
250 K, 198 kPa | 294.47 ± 0.5 m/s
250 K, 329.4 kPa | 294.47 ± 0.5 m/s
250 K, 2365.8 kPa | 294.8 ± 0.5 m/s
250 K, 4652.9 kPa | 296.36 ± 0.5 m/s
250 K, 5823 kPa | 297.76 ± 0.51 m/s
250.16 K, 48.7 kPa | 294.57 ± 0.5 m/s
250.16 K, 48.8 kPa | 294.58 ± 0.5 m/s
250.16 K, 192 kPa | 294.57 ± 0.5 m/s
250.16 K, 309.1 kPa | 294.57 ± 0.5 m/s
250.16 K, 447.7 kPa | 294.56 ± 0.5 m/s and 294.57 ± 0.5 m/s
250.16 K, 598.6 kPa | 294.56 ± 0.5 m/s and 294.57 ± 0.5 m/s
250.16 K, 732.5 kPa | 294.56 ± 0.5 m/s and 294.58 ± 0.5 m/s
250.16 K, 875.6 kPa | 294.58 ± 0.5 m/s
250.16 K, 1401.1 kPa | 294.62 ± 0.5 m/s and 294.65 ± 0.5 m/s
260 K, 198.6 kPa | 300.35 ± 0.51 m/s
260 K, 327.3 kPa | 300.37 ± 0.51 m/s
260 K, 3507.5 kPa | 301.95 ± 0.51 m/s
260 K, 4624 kPa | 303.04 ± 0.51 m/s
260 K, 6602.3 kPa | 305.84 ± 0.52 m/s
270 K, 53.2 kPa | 306.06 ± 0.52 m/s
270 K, 200 kPa | 306.11 ± 0.52 m/s
270 K, 325.8 kPa | 306.15 ± 0.52 m/s
270 K, 467.2 kPa | 306.2 ± 0.52 m/s
270 K, 3521.8 kPa | 308.29 ± 0.52 m/s
270 K, 4675.9 kPa | 309.59 ± 0.52 m/s
270 K, 5775.2 kPa | 311.12 ± 0.53 m/s
275.1 K, 47.6 kPa | 308.94 ± 0.52 m/s
275.1 K, 206.8 kPa | 309.01 ± 0.52 m/s
275.1 K, 206.9 kPa | 309.01 ± 0.52 m/s
275.1 K, 384.3 kPa | 309.09 ± 0.52 m/s and 309.1 ± 0.52 m/s
275.1 K, 547.4 kPa | 309.17 ± 0.52 m/s and 309.18 ± 0.52 m/s
275.1 K, 591.7 kPa | 309.2 ± 0.52 m/s
275.1 K, 706.2 kPa | 309.25 ± 0.52 m/s and 309.26 ± 0.52 m/s
275.1 K, 733.8 kPa | 309.27 ± 0.52 m/s and 309.28 ± 0.52 m/s
275.1 K, 860.2 kPa | 309.34 ± 0.52 m/s and 309.33 ± 0.52 m/s and 309.35 ± 0.52 m/s
275.1 K, 860.3 kPa | 309.35 ± 0.52 m/s
275.1 K, 1389.2 kPa | 309.65 ± 0.52 m/s
275.1 K, 1389.3 kPa | 309.67 ± 0.52 m/s
280 K, 200.1 kPa | 311.76 ± 0.53 m/s
280 K, 328.3 kPa | 311.83 ± 0.53 m/s
280 K, 2342.8 kPa | 313.26 ± 0.53 m/s
280 K, 4647.9 kPa | 315.83 ± 0.53 m/s
280 K, 5767 kPa | 317.48 ± 0.53 m/s
280 K, 6610.3 kPa | 318.94 ± 0.54 m/s
280.12 K, 99.1 kPa | 311.77 ± 0.53 m/s
280.12 K, 305.2 kPa | 311.87 ± 0.53 m/s
280.12 K, 307.7 kPa | 311.89 ± 0.53 m/s
280.12 K, 529.4 kPa | 312 ± 0.53 m/s
280.12 K, 531.1 kPa | 312.01 ± 0.53 m/s
280.12 K, 745.8 kPa | 312.13 ± 0.53 m/s
280.12 K, 748 kPa | 312.14 ± 0.53 m/s
280.12 K, 962.4 kPa | 312.27 ± 0.53 m/s
280.12 K, 964.6 kPa | 312.28 ± 0.53 m/s
280.12 K, 1184.9 kPa | 312.42 ± 0.53 m/s
280.12 K, 1396.4 kPa | 312.58 ± 0.53 m/s
280.12 K, 1396.8 kPa | 312.57 ± 0.53 m/s
280.12 K, 1601.7 kPa | 312.72 ± 0.53 m/s
280.12 K, 1834.4 kPa | 312.91 ± 0.53 m/s
290 K, 53.6 kPa | 317.2 ± 0.53 m/s
290 K, 196.4 kPa | 317.3 ± 0.53 m/s
290 K, 1191.6 kPa | 318.04 ± 0.53 m/s
290 K, 2325 kPa | 319.08 ± 0.54 m/s
290 K, 3477.8 kPa | 320.36 ± 0.54 m/s
300 K, 30.5 kPa | 322.62 ± 0.54 m/s
300 K, 183.8 kPa | 322.74 ± 0.54 m/s
300 K, 308.3 kPa | 322.84 ± 0.54 m/s
300 K, 1180.9 kPa | 323.61 ± 0.54 m/s
300 K, 2331.5 kPa | 324.81 ± 0.55 m/s
300 K, 4657.3 kPa | 327.88 ± 0.55 m/s
300 K, 5832.9 kPa | 329.8 ± 0.55 m/s
300 K, 6595.8 kPa | 331.21 ± 0.56 m/s
300.11 K, 100.3 kPa | 322.73 ± 0.54 m/s
300.11 K, 244.7 kPa | 322.85 ± 0.54 m/s
300.11 K, 395.4 kPa | 322.98 ± 0.54 m/s
300.11 K, 528 kPa | 323.11 ± 0.54 m/s
300.11 K, 558.1 kPa | 323.12 ± 0.54 m/s
300.11 K, 701.6 kPa | 323.24 ± 0.54 m/s
300.11 K, 739.1 kPa | 323.3 ± 0.54 m/s
300.11 K, 868 kPa | 323.39 ± 0.54 m/s
300.11 K, 963 kPa | 323.5 ± 0.54 m/s
300.11 K, 1011.7 kPa | 323.53 ± 0.54 m/s
300.11 K, 1166.1 kPa | 323.69 ± 0.54 m/s
300.11 K, 1618 kPa | 324.14 ± 0.54 m/s
300.11 K, 1836.4 kPa | 324.37 ± 0.54 m/s
300.12 K, 48.1 kPa | 322.69 ± 0.54 m/s
300.12 K, 193 kPa | 322.81 ± 0.54 m/s
300.12 K, 308.1 kPa | 322.91 ± 0.54 m/s
300.12 K, 445.5 kPa | 323.02 ± 0.54 m/s and 323.03 ± 0.54 m/s
300.12 K, 729.9 kPa | 323.27 ± 0.54 m/s and 323.28 ± 0.54 m/s
300.12 K, 868.1 kPa | 323.39 ± 0.54 m/s
300.12 K, 868.2 kPa | 323.4 ± 0.54 m/s and 323.41 ± 0.54 m/s
300.12 K, 1378.6 kPa | 323.87 ± 0.54 m/s and 323.89 ± 0.54 m/s
310 K, 104.7 kPa | 328.02 ± 0.55 m/s
310 K, 198.6 kPa | 328.11 ± 0.55 m/s
310 K, 329.2 kPa | 328.23 ± 0.55 m/s
310 K, 463.4 kPa | 328.35 ± 0.55 m/s
310 K, 2330.1 kPa | 330.38 ± 0.55 m/s
310 K, 4624.6 kPa | 333.59 ± 0.56 m/s
310 K, 6595.8 kPa | 337.02 ± 0.56 m/s
320 K, 102 kPa | 333.28 ± 0.56 m/s
320 K, 180.5 kPa | 333.35 ± 0.56 m/s
320 K, 311 kPa | 333.48 ± 0.56 m/s
320 K, 450.5 kPa | 333.63 ± 0.56 m/s
320 K, 576.4 kPa | 333.77 ± 0.56 m/s and 333.79 ± 0.56 m/s
320 K, 1053.9 kPa | 334.3 ± 0.56 m/s and 334.32 ± 0.56 m/s
320 K, 1550.8 kPa | 334.89 ± 0.56 m/s and 334.9 ± 0.56 m/s
320 K, 2333.1 kPa | 335.85 ± 0.56 m/s
320 K, 4482.2 kPa | 339 ± 0.57 m/s
320 K, 5819.9 kPa | 341.24 ± 0.57 m/s
325.05 K, 48.1 kPa | 335.83 ± 0.56 m/s
325.05 K, 192.9 kPa | 336 ± 0.56 m/s and 335.99 ± 0.56 m/s
325.05 K, 314.5 kPa | 336.13 ± 0.56 m/s
325.05 K, 438.6 kPa | 336.27 ± 0.56 m/s
325.05 K, 592.7 kPa | 336.44 ± 0.56 m/s
325.05 K, 736 kPa | 336.6 ± 0.56 m/s
325.05 K, 870.8 kPa | 336.76 ± 0.56 m/s
325.05 K, 1376.5 kPa | 337.36 ± 0.56 m/s
325.05 K, 1376.6 kPa | 337.37 ± 0.56 m/s
325.05 K, 2721.4 kPa | 339.14 ± 0.57 m/s
349.87 K, 48.9 kPa | 348.43 ± 0.58 m/s and 348.44 ± 0.58 m/s
349.87 K, 182.8 kPa | 348.62 ± 0.58 m/s
349.87 K, 182.9 kPa | 348.61 ± 0.58 m/s
349.87 K, 307.3 kPa | 348.77 ± 0.58 m/s and 348.78 ± 0.58 m/s
349.87 K, 447 kPa | 348.95 ± 0.58 m/s and 348.97 ± 0.58 m/s
349.87 K, 594.5 kPa | 349.14 ± 0.58 m/s
349.87 K, 726.7 kPa | 349.32 ± 0.58 m/s and 349.34 ± 0.58 m/s
349.87 K, 864.5 kPa | 349.5 ± 0.58 m/s
349.87 K, 864.6 kPa | 349.52 ± 0.58 m/s
349.87 K, 1397.7 kPa | 350.24 ± 0.58 m/s and 350.26 ± 0.58 m/s
349.87 K, 2711.2 kPa | 352.19 ± 0.59 m/s
